# Experimental data as given in US9504675B2, “Alpha-ketoheterocycles and methods of making and using” (The Scripps Research Institute, priority 2011, dated 2016).
# Like-named read-outs stand apart in the source and are kept apart here.
# Legend:
# [1] = target: T1, recombinant rat FAAH (rFAAH) (Rattus norvegicus, UniProt P97612); assay: Enzyme assay: inhibition of purified recombinant rat FAAH, 14C-oleamide hydrolysis, Ki by Dixon plot; format: biochemical; conditions: for potency of more active (S)-enantiomer over (R)-enantiomer: ratio of FAAH inhibition between enantiomers
# T1 construct: The truncated rat FAAH (rFAAH) was expressed in E. coli and purified; made in house; host or cells: Escherichia coli
# T1 sequence (P97612 30-579 limits assumed): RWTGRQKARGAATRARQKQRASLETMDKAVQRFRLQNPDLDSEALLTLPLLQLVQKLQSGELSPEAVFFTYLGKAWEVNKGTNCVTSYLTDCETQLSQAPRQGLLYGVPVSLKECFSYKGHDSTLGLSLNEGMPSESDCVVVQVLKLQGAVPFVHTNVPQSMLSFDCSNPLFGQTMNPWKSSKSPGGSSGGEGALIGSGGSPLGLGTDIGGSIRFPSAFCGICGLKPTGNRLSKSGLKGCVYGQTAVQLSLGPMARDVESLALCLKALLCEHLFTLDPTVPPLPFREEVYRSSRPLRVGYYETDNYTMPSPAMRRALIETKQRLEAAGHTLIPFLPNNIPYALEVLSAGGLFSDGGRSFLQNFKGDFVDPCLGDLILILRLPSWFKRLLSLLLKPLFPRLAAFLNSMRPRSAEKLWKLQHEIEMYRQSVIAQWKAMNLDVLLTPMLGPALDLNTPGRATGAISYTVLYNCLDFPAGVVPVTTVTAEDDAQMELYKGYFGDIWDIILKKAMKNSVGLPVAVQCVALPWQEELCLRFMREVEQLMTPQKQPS
# Procedure: Enzyme assays were performed at 20-23° C. with purified recombinant rat FAAH expressed in Escherichia coli or with solubilized COS-7 membrane extracts from cells transiently transfected with human FAAH cDNA (where specifically indicated) in a buffer of 125 mM Tris/1 mM EDTA/0.2% glycerol/0.02% Triton X-100/0.4 mM Hepes, pH 9.0.
# ^14C-labeled oleamide was prepared from ^14C-labeled oleic acid. The truncated rat FAAH (rFAAH) was expressed in E. coli and purified. The purified recombinant rFAAH was used in the inhibition assays unless otherwise indicated. The full-length human FAAH (hFAAH) was expressed in COS-7 cells as described, and the lysate of hFAAH-transfected COS-7 cells was used in the inhibition assays where explicitly indicated.
# The inhibition assays were performed as follows. […] The enzyme reaction was terminated by transferring 20 μL of the reaction mixture to 500 μL of 0.1 N HCl at three different time points. The ^14C-labeled oleamide (substrate) and oleic acid (product) were extracted with EtOAc and analyzed by TLC as detailed. The Ki of the inhibitor was calculated using a Dixon plot as described (standard deviations are provided in the Supporting Information tables).
# [2] = test system: endogenous levels of FAAH substrates AEA, PEA, OEA and of 2-AG, AA; assay: In vivo pharmacodynamic studies: brain and liver lipid levels after inhibitor treatment (LC-MS); set-up: species or system mouse (C57BL/6J); conditions: Table 6, 30 mg/kg i.p., 1 h, single mouse; for Brain 2-AG (fold increase) / Brain AA (fold increase) / Brain AEA (fold increase) / Brain PEA (fold increase): vs vehicle
# Procedure: This includes monitoring the effects of the inhibitors on the endogenous levels of the FAAH substrates anandamide (AEA, N-arachidonoyl ethanolamine), N-oleoyl ethanolamine (OEA), and N-palmitoyl ethanolamine (PEA), as well as the key lipids 2-arachidonoylglycerol (2-AG) and arachidonic acid (AA) that are not endogenous substrates for FAAH.
# Inhibitors were prepared as a saline-emulphor emulsion for intraperitoneal (i.p.) administration by vortexing, sonicating, and gently heating neat compound directly into an 18:1:1 v/v/v solution of saline:ethanol:emulphor, or as a homogeneous PEG solution for oral administration (p.o.) by vortexing, sonicating, and gently heating neat compound directly into PEG300 (Fluka). Male C57BL/6J mice (<6 months old, 20-28 g) were administered inhibitors in saline-emulphor emulsion or an 18:1:1 v/v/v saline:emulphor:ethanol vehicle i.p. at a volume of 10 μL/g weight, or alternatively inhibitors in PEG300 or a PEG300 vehicle p.o. at a volume of 4 μL/g weight. After the indicated amount of time, mice were anesthetized with isofluorane and killed by decapitation. Total brains (˜400 mg) and a portion of the liver (˜100 mg) were removed and flash frozen in liquid N2.
# Tissue was weighed and subsequently Dounce homogenized in 2:1:1 v/v/v CHCl3:MeOH:Tris pH 8.0 (8 mL) containing standards for lipids (50 pmol d4-PEA, 2 pmol d4-AEA, 0.5 nmol ds-2-AG, and 10 nmol pentadecanoic acid). The mixture was vortexed and then centrifuged (1,400×g, 10 min). The organic layer was removed, dried under a stream of N2, resolubilized in 2:1 v/v CHCl3:MeOH (120 μL), and 10 μL of this resolubilized lipid was injected onto an Agilent G6410B QQQ instrument. […] Mobile phase A was composed of a 95:5 v/v H2O:MeOH, and mobile phase B was composed of a 65:35:5 v/v/v i-PrOH:MeOH:H2O. 0.1% Formic acid or 0.1% ammonium hydroxide was included to assist in ion formation in positive and negative ionization mode, respectively. The flow rate for each run started at 0.1 mL/min with 0% B. At 5 min, the solvent was immediately changed to 60% B with a flow rate of 0.4 mL/min and increased linearly to 100% B over 10 min. […] MS analysis was performed with an electrospray ionization (ESI) source. […] For negative polarity, the analysis was performed in MS2 scan mode from 100-1000 m/z. The capillary was set to 4 kV, the fragmentor was set to 100 V, and the delta EMV was set to 0. Lipids were quantified by measuring the area under the peak in comparison to the standards.
# [3] = test system: mice, acute thermal pain (tail flick at 52° C.); assay: Mouse tail flick assay (52° C. warm water), acute thermal pain; format: in vivo, mouse (CD-1); conditions: i.v. administration
# Procedure: Concurrent with these studies, two prototypical inhibitors 12 and 14 were examined for antinociceptive activity in a preclinical model of acute thermal pain (tail flick at 52° C.) in mice alongside 2 and morphine (i.v. administration).
# Male CD-1 (25-35 g, Charles River) mice were housed in groups of five in Plexiglas chambers with food and water available ad libitum. All animals were maintained on a 12 h light/dark cycle (lights on at 7:00 AM) in a temperature- and humidity-controlled animal colony. All tail-flick experiments were performed under an approved University of New England animal protocol in accordance with institutional guidelines and in accordance with the Guide for the Care and Use of Laboratory Animals as adopted and promulgated by the National Institutes of Health. Efficacy of the test compound was assessed using the 52° C. warm water tail-flick test. The latency to the first sign of a rapid tail-flick was taken as the behavioral endpoint. Each mouse was first tested for baseline latency by immersing its tail in the water and recording the time to response. Mice not responding within 5 sec were excluded from further testing. Mice were then administered the test compound and tested for antinociception at various time points afterwards. Antinociception was calculated by the following formula: % Antinociception=100×(test latency−control latency)/(10−control latency). A maximum score was assigned (100%) to animals not responding within 10 sec to avoid tissue damage.
# [4] = Ki, Table 3, tentatively assigned (S)-enantiomer, indane C2 acyl side chain
# [5] = Ki, Table 4, (S)-enantiomer, additional FAAH inhibitors
smiles,measurement,setting,value
"COC(=O)c1cccc(-c2cnc(C(=O)C3Cc4ccc(OCc5ccccc5)cc4C3)o2)n1 (single isomer, unassigned) [(S)-32, Methyl 6-(2-(5-(Benzyloxy)indane-2-carbonyl)oxazol-5-yl)picolinate]",Ki,[1]; [4],5.8 nM
"O=C(O)c1cccc(-c2cnc(C(=O)C3Cc4ccc(OCc5ccccc5)cc4C3)o2)n1 (single isomer, unassigned) [(S)-33, 6-(2-(5-(Benzyloxy)indane-2-carbonyl)oxazol-5-yl)picolinic acid]",Ki,[1]; [4],51 nM
"O=C(c1nnco1)C1CCc2cc(Oc3ccccc3)ccc2C1 (single isomer, unassigned) [(S)-34, (1,3,4-Oxadlazol-2-yl)(6-phenoxy-1,2,3,4-tetrahydronaphthalen-2-yl)methanone]",Ki,[1]; [5],0.5 nM
"COC(=O)c1nnc(C(=O)C2CCc3cc(Oc4ccccc4)ccc3C2)o1 (single isomer, unassigned) [(S)-35, Methyl 5-(6-Phenoxy-1,2,3,4-tetrahydronaphthalene-2-carbonyl)-[1,3,4]oxadiazole-2-carboxylate]",Ki,[1]; [5],1.5 nM
"O=C(c1nnc(-c2ccccn2)o1)C1CCc2cc(Oc3ccccc3)ccc2C1 (single isomer, unassigned) [(S)-36, (6-Phenoxy-1,2,3,4-tetrahydronaphthalen-2-yl)(5-(pyridin-2-yl)-1,3,4-oxadiazol-2-yl)methanone]",Ki,[1]; [5],1 nM
"O=C(c1ncco1)C1CCc2ccccc2C1 (single isomer, unassigned) [(S)-37, Oxazol-2-yl(1,2,3,4-tetrahydronaphthalen-2-yl)methanone]",Ki,[1]; [5],5100 nM
"O=C(c1ncc(-c2ccccn2)o1)C1CCc2ccccc2C1 (single isomer, unassigned) [(S)-38, (5-(Pyridin-2-yl)oxazol-2-yl)(1,2,3,4-tetrahydronaphthalen-2-yl)methanone]",Ki,[1]; [5],430 nM
"O=C(c1ncc(I)o1)C1CCc2cc(OCc3ccccc3)ccc2C1 (stereo not shown) [Compound 21, (6-(Benzyloxy)-1,2,3,4-tetrahydronaphthalen-2-yl)(5-iodooxazol-2-yl)methanone]",potency of more active (S)-enantiomer over (R)-enantiomer,[1],ca. 200 fold
"O=C(c1ncc(-c2ccccn2)o1)C1Cc2ccc(Oc3ccccc3)cc2C1 (stereo not shown) [Compound 27, (5-Phenoxyindan-2-yl)(5-(pyridin-2-yl)oxazol-2-yl)methanone]",Brain 2-AG,[2],11 pmol/g
same,Brain AA,[2],190 pmol/g
same,Brain AEA,[2],24 pmol/g
same,Brain PEA,[2],800 pmol/g
same,Brain 2-AG (fold increase),[2],0.8 fold increase
same,Brain AA (fold increase),[2],0.9 fold increase
same,Brain AEA (fold increase),[2],3.0 fold increase
same,Brain PEA (fold increase),[2],7.4 fold increase
"O=C(O)c1cccc(-c2cnc(C(=O)C3Cc4ccc(Oc5ccccc5)cc4C3)o2)n1 (stereo not shown) [Compound 29, 6-(2-(5-Phenoxyindane-2-carbonyl)oxazol-5-yl)picolinic acid]",Brain 2-AG,[2],12 pmol/g
same,Brain AA,[2],172 pmol/g
same,Brain AEA,[2],8 pmol/g
same,Brain PEA,[2],131 pmol/g
same,Brain 2-AG (fold increase),[2],0.9 fold increase
same,Brain AA (fold increase),[2],0.8 fold increase
same,Brain AEA (fold increase),[2],1.0 fold increase
same,Brain PEA (fold increase),[2],1.2 fold increase
"O=C(c1ncco1)C1CCc2ccccc2C1 (stereo not shown) [Compound 37, Oxazol-2-yl(1,2,3,4-tetrahydronaphthalen-2-yl)methanone]",improvement in potency relative to the corresponding oxazole 9,[1]; (S)-enantiomer,4-5 fold
same,Ki,"[1]; Ki, first of the two enantiomers, text b169, enantiomer distinction 5.1 vs 12 μM",5100 nM
same,Ki,"[1]; Ki, second of the two enantiomers, text b169, enantiomer distinction 5.1 vs 12 μM",12000 nM
same,potency of more active (S)-enantiomer over (R)-enantiomer,[1],ca. 2 fold
"O=C(c1ncc(-c2ccccn2)o1)C1CCc2ccccc2C1 (stereo not shown) [Compound 38, (5-(Pyridin-2-yl)oxazol-2-yl)(1,2,3,4-tetrahydronaphthalen-2-yl)methanone]",Ki relative to the FAAH inhibitor lacking the conformational constraints (Ki=200 nM),[1],2 fold
same,Ki,[1]; Ki,430 nM
"O=C(c1ncco1)C1Cc2ccccc2C1 [Compound 39, (Indan-2-yl)(oxazol-2-yl)methanone]",Ki,"[1]; Table 4, meso indane derivatives without aryl substituent, read-out: Ki",7100 nM
"O=C(c1ncc(-c2ccccn2)o1)C1Cc2ccccc2C1 [Compound 40, (Indan-2-yl)(5-(pyridin-2-yl)oxazol-2-yl)methanone]",Ki relative to the FAAH inhibitor lacking the conformational constraints (Ki=200 nM),[1],5 fold
same,Ki,[1]; read-out: Ki,1100 nM
"CN1CC[C@]23c4c5ccc(O)c4O[C@H]2[C@@H](O)C=C[C@H]3[C@H]1C5 [morphine, reference compound]",duration of antinociceptive effect,[3],150 min
